Data published in patent US20230293530A1, “AGENTS FOR SENSITIZING SOLID TUMORS TO TREATMENT” (Yeda Research and Development Co. Ltd., priority 2020, published 2023).

Tested on: NSCLC PDX explants with autologous CD8+ T cells
Assay: Co-culture of NSCLC PDX tumor explants with autologous CD8+ T cells, IFNγ ELISA
Format: cell-based, human
Text: Two patients bearing metastatic non-small cell lung cancer (NSCLC) were included in this study. Blood samples and fresh tumor tissue samples were procured just after their biopsy with patient consent and with Helsinki approval (number 0093-19-SOR). The samples were placed in serum free DMEM (Gibco) media then processed for implantation in NSG (NOD scid gamma) mice. Tumor tissue samples were implanted subcutaneously in dorsal flanks of the mice to form patient-derived xenografts (PDXs). All animal experiments were done under Institutional Animal Care and Use Committee (IACUC) of Ben-Gurion University of the Negev (BGU’s IACUC) according to specified protocols aiming to ensure animal welfare and reduce su □ ering. The Animal ethical clearance protocol number used for this research is IL-80-12-2015. After isolation of peripheral blood mononuclear cells (PBMCs) from the peripheral blood of the patients according to standard protocol using Lymphocyte Separation Medium (LSM, MP Biomedicals, SKU 0850494-CF), CD8^+ T cells were isolated from PBMCs by employing human CD8 Microbeads (Miltenyi Biotec, 130-045-201), LS column (Miltenyi Biotec, 130-042-401) and MidiMACS Separator (130-042-302) following manufacturer’s protocol. For culturing and maintenance of CD8 T cells, RPMI containing 10% human male AB plasma (Sigma, H4522), 1 mM sodium pyruvate, 2 mM L-glutamine, 0.1 mM MEM non-essential amino acids, 1% penicillin/streptomycin, 10 mM HEPES (Life Technologies), 200 IU/mL recombinant human IL-2 (PeproTech) and 50 ng/mL anti-human CD3 Antibody (BioLegend, 317302) were used for the first 48 hrs followed by culturing and passaging in media containing 200 IU/mL of IL-2.
2×2×2 mm^3 tumor tissue explants were cut from PDXs with a specific tissue cutter and seeded singly in 48 well flat-bottom plates and incubated with either mizoribine (0.3 mM) in 400 µl of media or with only media for 10 hrs. Then, explants were washed once and transferred into new 48 well flat-bottom plates containing 2×10^5 CD8+T cells/well along with nivolumab (Opdivo, 20 µg/mL), pembrolizumab (Keytruda, 20 µg/mL) or mock solventin fresh 400 µl RPMI containing 20 IU/ml ofIL-2. After 18 hours of incubation, the supernatant was collected from the wells and then assayed for standard IFNγ ELISA assay (ELISA MAX, Biolegend) according to manufacturer’s instructions.
Two patients bearing metastatic non-small cell lung cancer (NSCLC) were included in this study. Blood samples and fresh tumor tissue samples were procured just after their biopsy with patient consent and with Helsinki approval (number 0093-19-SOR). The samples were placed in serum free DMEM (Gibco) media then processed for implantation in NSG (NOD scid gamma) mice (NOD.Cg-Prkdcscid Il2rgtm1Wjl, The Jackson Laboratory). Tumor tissue samples were implanted subcutaneously in dorsal flanks of the 7-9 weeks old male mice to form patient-derived xenografts (PDXs).
After isolation of peripheral blood mononuclear cells (PBMCs) from the peripheral blood of the patients according to standard protocol using Lymphocyte Separation Medium (LSM, MP Biomedicals, SKU 0850494-CF), CD8^+ T cells were isolated from PBMCs by employing human CD8 Microbeads (Miltenyi Biotec, 130-045-201), LS column (Miltenyi Biotec, 130-042-401) and MidiMACS Separator (130-042-302) following manufacturer’s protocol. For culturing and maintenance of CD8 T cells, RPMI containing 10% human male AB plasma (Sigma, H4522), 1 mM sodium pyruvate, 2 mM L-glutamine, 0.1 mM MEM non-essential amino acids, 1% penicillin/streptomycin, 10 mM HEPES (Life Technologies), 200 IU/mL recombinant human IL-2 (PeproTech) and 50 ng/mL anti-human CD3 Antibody (BioLegend, 317302) were used for the first 48 hrs followed by culturing and passaging in media containing 200 IU/mL of IL-2.
PDXs from patients with lung cancer non responsive to anti-PD1 were exposed to no treatment, to mizoribine, or to either EDHB (left panel) or Viagra (right panel). […]

`NC(=O)c1ncn([C@@H]2O[C@H](CO)[C@@H](O)[C@H]2O)c1O` [Mizoribine, mizoribine] was tested, and the “human IFNγ in supernatant, explant alone” value (PDX explant alone treated with mizoribine 0.3 mM, no T cells) was “did not detect human IFNγ”, the “IFNγ secretion by autologous CD8+ T cells, anti-PD1 plus mizoribine-treated explants” value (explants pre-treated with mizoribine 0.3 mM 10 hrs, nivolumab or pembrolizumab 20 µg/mL, 18 hours) was “significant elevation in secretion of IFN-γ” and the “human IFNγ levels, explant plus autologous CD8+ T cells, no anti-PD1” value (mizoribine-treated explants with autologous CD8+T cells) was “did not induce detectable IFNγ levels”.
